Data on six compounds can be found in patent US12252524B2, “GIP/GLP1 co-agonist compounds” (Eli Lilly and Company, priority 2018, dated 2025).

Read-outs that look alike come from different tables or passages of the source. Numbered stars: 1 amine (or outer) side, 2 acyl side, 3 side chain; on linkers, the order of the positions; unused ones are H or OH. Square brackets hold non-standard residues; d marks the D form. Side chains are listed from the residue outwards. Peptide text beside a SMILES is read from it. * marks the point of attachment. C20 diacid = O=C(O)CCCCCCCCCCCCCCCCCCC(=O)*; C18 diacid = O=C(O)CCCCCCCCCCCCCCCCC(=O)*; γGlu = O=C(O)[C@H](CCC(=O)[*:2])N[*:1]; αMeF = C[C@](N)(Cc1ccccc1)C(=O)O; αMeL = CC(C)C[C@](C)(N)C(=O)O; AEEA = NCCOCCOCC(=O)O; Aib = CC(C)(N)C(=O)O

Data set [1] addresses human GLP-1 receptor (GLP-1R) (Homo sapiens, UniProt P43220). The data set is described as follows: cAMP pharmacological functional assay in presence of casein, hGLP-1R. Type of data set: cell-based.
The next data set addresses T1, human GIP receptor (Homo sapiens, UniProt P48546).
T1 construct: expressed in transfected cells; crude membranes
T1 sequence (P48546 22-466): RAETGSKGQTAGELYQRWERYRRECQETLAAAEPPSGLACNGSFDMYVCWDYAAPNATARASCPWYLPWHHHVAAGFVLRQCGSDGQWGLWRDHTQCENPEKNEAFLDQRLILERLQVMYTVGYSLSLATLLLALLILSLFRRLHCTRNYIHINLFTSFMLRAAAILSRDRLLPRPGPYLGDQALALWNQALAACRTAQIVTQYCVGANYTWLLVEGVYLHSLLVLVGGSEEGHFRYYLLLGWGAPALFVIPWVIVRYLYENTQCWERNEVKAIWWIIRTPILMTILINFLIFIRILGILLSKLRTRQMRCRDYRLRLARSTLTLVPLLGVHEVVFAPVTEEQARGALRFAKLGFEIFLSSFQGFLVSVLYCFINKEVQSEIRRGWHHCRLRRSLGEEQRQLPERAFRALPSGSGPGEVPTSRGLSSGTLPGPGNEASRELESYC
As to the kind of experiment: [125I]-GIP binding (SPA), human GIP receptor.

In the next data set the target is human GLP-1R (Homo sapiens, UniProt P43220). As to the kind of experiment: [125I]-GLP-1 binding (SPA), human GLP-1 receptor. The arrangement: expressed in transfected cells; crude membranes. In a few lines: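 Crude-membrane binding assay; one membrane prep included 1 mM MgCl2 and 25 units/ml DNAse I during lysis. Assay buffer at pH 7.4 contains 0.1% (w/v) bacitracin and 0.003% (w/v) TWEEN-20. Ki is reported as geometric mean.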
human GLP-1R, sequence (P43220 24-463): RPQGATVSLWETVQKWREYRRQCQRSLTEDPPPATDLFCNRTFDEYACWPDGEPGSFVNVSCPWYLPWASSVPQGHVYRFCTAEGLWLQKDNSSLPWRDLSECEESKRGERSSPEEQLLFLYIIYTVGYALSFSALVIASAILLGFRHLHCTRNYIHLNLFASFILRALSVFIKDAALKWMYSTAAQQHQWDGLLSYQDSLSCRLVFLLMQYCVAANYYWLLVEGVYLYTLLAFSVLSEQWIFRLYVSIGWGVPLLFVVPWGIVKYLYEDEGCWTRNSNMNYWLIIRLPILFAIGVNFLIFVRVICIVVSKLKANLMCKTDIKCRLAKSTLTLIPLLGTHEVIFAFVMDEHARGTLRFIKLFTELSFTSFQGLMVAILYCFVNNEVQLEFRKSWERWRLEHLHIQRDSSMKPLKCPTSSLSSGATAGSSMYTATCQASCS

Data set [2] concerns CD8+ T cell depleted peripheral blood mononuclear cells. As to the kind of experiment: CD4+ T cell assay for potential clinical immunogenicity.
Description: The purpose of this study is to determine the relative potential for clinical immunogenicity of a compound.
CD8+ T cell depleted peripheral blood mononuclear cells are prepared and labeled with Carboxyfluorescein Diacetate Succinimidyl Ester (CFSE, Invitrogen) from a cohort of 10 healthy donors. […] Cultures are incubated for 7 days at 37° C. with 5% CO2. On day 7, samples are analyzed by flow cytometry using High Throughput Sampler (HTS). Data is analyzed using FlowJo® Software (FlowJo, LLC, TreeStar).
Setting [3] is: HEK293 cells expressing hGLP-1R, 0.1% Casein, geometric mean, read-out: hGLP1R cAMP Rel EC50 nM (SEM, n).
The mark [4] stands for this setting: read-out: hGIPR Ki, nM (SEM, n).
Where [5] appears, read: read-out: hGLP1R Ki, (nM) (SEM, n).

human GLP-1 receptor (GLP-1R), sequence (P43220 24-463): as above

Usually EC50 stands for the concentration at which the effect is half-maximal. As a reminder, the Ki is a measure of affinity in units of concentration, obtained from inhibition or displacement. As to `CC[C@H](C)[C@H](NC(=O)[C@H](CC(C)C)NC(=O)[C@](C)(Cc1ccc(O)cc1)NC(=O)[C@@H](CCC(=O)O)NC(=O)[C@@H](NC(=O)[C@H](Cc1ccccc1)NC(=O)[C@H](CCC(=O)O)NC(=O)C(C)(C)NC(=O)[C@H](CCC(N)=O)NC(=O)[C@H](C)NC(=O)[C@H](CCCCNC(=O)COCCOCCNC(=O)COCCOCCNC(=O)CC[C@H](NC(=O)CCCCCCCCCCCCCCCCC(=O)O)C(=O)O)NC(=O)[C@H](CCCN)NC(=O)[C@H](CC(=O)O)NC(=O)[C@H](CC(C)C)NC(=O)[C@](C)(CC(C)C)NC(=O)[C@@H](NC(=O)[C@H](CO)NC(=O)[C@H](Cc1ccncc1)NC(=O)[C@H](CC(=O)O)NC(=O)[C@H](CO)NC(=O)[C@@H](NC(=O)[C@](C)(Cc1ccccc1F)NC(=O)[C@@H](NC(=O)CNC(=O)[C@H](CCC(=O)O)NC(=O)C(C)(C)NC(=O)[C@@H](N)Cc1ccc(O)cc1)[C@@H](C)O)[C@@H](C)O)[C@@H](C)CC)[C@@H](C)CC)C(=O)N[C@@H](CCC(=O)O)C(=O)NCC(=O)NCC(=O)N1CCC[C@H]1C(=O)N[C@@H](CO)C(=O)N[C@@H](CO)C(=O)NCC(=O)N[C@@H](C)C(=O)N1CCC[C@H]1C(=O)N1CCC[C@H]1C(=O)N1CCC[C@H]1C(=O)N[C@@H](CO)C(N)=O` [Example 4], in data set [1], the EC50 is 0.0297 nM. The Ki at human GIP receptor amounted to 0.0528 nM; on human GLP-1R it was 1.63 nM. Besides, in data set [2] (CD4+ T cell assay), the “frequency of positive CD+ T cell response (CDI>2.5)” value is given as “low”. The “% Donor Response (CD4+ T cell response)” value in data set [2] (Examples 10 uM, KLH 0.33 μM, 7 days) was found to be 0%.

On to `CC[C@H](C)[C@H](NC(=O)[C@H](CC(C)C)NC(=O)[C@H](Cc1ccc(O)cc1)NC(=O)[C@H](CCC(=O)O)NC(=O)[C@@H](NC(=O)[C@H](Cc1ccccc1)NC(=O)[C@H](C)NC(=O)C(C)(C)NC(=O)[C@H](CCC(N)=O)NC(=O)[C@H](C)NC(=O)[C@H](CCCCNC(=O)COCCOCCNC(=O)COCCOCCNC(=O)CC[C@H](NC(=O)CCCCCCCCCCCCCCCCCCC(=O)O)C(=O)O)NC(=O)[C@H](CCCCN)NC(=O)[C@H](CC(=O)O)NC(=O)[C@H](CC(C)C)NC(=O)[C@H](CC(C)C)NC(=O)[C@@H](NC(=O)[C@H](CO)NC(=O)[C@H](Cc1ccc(O)cc1)NC(=O)[C@H](CC(=O)O)NC(=O)[C@H](CO)NC(=O)[C@@H](NC(=O)[C@H](Cc1ccccc1)NC(=O)[C@@H](NC(=O)CNC(=O)[C@H](CCC(=O)O)NC(=O)C(C)(C)NC(=O)[C@@H](N)Cc1ccc(O)cc1)[C@@H](C)O)[C@@H](C)O)[C@@H](C)CC)[C@@H](C)CC)C(=O)N[C@@H](C)C(=O)NCC(=O)NCC(=O)N1CCC[C@H]1C(=O)N[C@@H](CO)C(=O)N[C@@H](CO)C(=O)NCC(=O)N[C@@H](C)C(=O)N1CCC[C@H]1C(=O)N1CCC[C@H]1C(=O)N1CCC[C@H]1C(=O)N[C@@H](CO)C(N)=O` [Example 288] (H-Y[Aib]EGTFTSDYSILLDKK([AEEA-AEEA-γGlu-C20 diacid])AQ[Aib]AFIEYLIAGGPSSGAPPPS-NH2; N-terminus assumed), for which the EC50 in data set [1] (setting [3]) is 0.172 nM. Also, the Ki on human GIP receptor (setting [4]) turned out to be 0.058 nM; at human GLP-1R (setting [5]), 1.6 nM.

Turning to `CC[C@H](C)[C@H](NC(=O)[C@H](CC(C)C)NC(=O)[C@H](Cc1ccc(O)cc1)NC(=O)[C@H](CCC(=O)O)NC(=O)[C@@H](NC(=O)[C@H](Cc1ccccc1)NC(=O)[C@H](CCC(=O)O)NC(=O)C(C)(C)NC(=O)[C@H](CCC(N)=O)NC(=O)[C@H](C)NC(=O)[C@H](CCCCNC(=O)COCCOCCNC(=O)COCCOCCNC(=O)CC[C@H](NC(=O)CCCCCCCCCCCCCCCCCCC(=O)O)C(=O)O)NC(=O)[C@H](CCCCN)NC(=O)[C@H](CC(=O)O)NC(=O)[C@H](CC(C)C)NC(=O)[C@](C)(CC(C)C)NC(=O)[C@@H](NC(=O)[C@H](CO)NC(=O)[C@H](Cc1ccc(O)cc1)NC(=O)[C@H](CC(=O)O)NC(=O)[C@H](CO)NC(=O)[C@@H](NC(=O)[C@H](Cc1ccccc1)NC(=O)[C@@H](NC(=O)CNC(=O)[C@H](CCC(=O)O)NC(=O)C(C)(C)NC(=O)[C@@H](N)Cc1ccc(O)cc1)[C@@H](C)O)[C@@H](C)O)[C@@H](C)CC)[C@@H](C)CC)C(=O)N[C@@H](C)C(=O)NCC(=O)NCC(=O)N1CCC[C@H]1C(=O)N[C@@H](CO)C(=O)N[C@@H](CO)C(=O)NCC(=O)N[C@@H](C)C(=O)N1CCC[C@H]1C(=O)N1CCC[C@H]1C(=O)N1CCC[C@H]1C(=O)N[C@@H](CO)C(N)=O` [Example 289] (H-Y[Aib]EGTFTSDYSI[αMeL]LDKK([AEEA-AEEA-γGlu-C20 diacid])AQ[Aib]EFIEYLIAGGPSSGAPPPS-NH2), the EC50 in data set [1] (setting [3]) came out at 0.0544 nM. The Ki at human GIP receptor (setting [4]) is 0.0457 nM; at human GLP-1R (setting [5]), 2.63 nM.

For the compound `CC[C@H](C)[C@H](NC(=O)[C@H](CC(C)C)NC(=O)[C@H](Cc1ccc(O)cc1)NC(=O)[C@H](CCC(=O)O)NC(=O)[C@@H](NC(=O)[C@H](Cc1ccccc1)NC(=O)[C@H](C)NC(=O)C(C)(C)NC(=O)[C@H](CCC(N)=O)NC(=O)[C@H](C)NC(=O)[C@H](CCCCNC(=O)COCCOCCNC(=O)COCCOCCNC(=O)CC[C@H](NC(=O)CCCCCCCCCCCCCCCCC(=O)O)C(=O)O)NC(=O)[C@H](CCCCN)NC(=O)[C@H](CC(=O)O)NC(=O)[C@H](CC(C)C)NC(=O)[C@H](CC(C)C)NC(=O)[C@@H](NC(=O)[C@H](CO)NC(=O)[C@H](Cc1ccc(O)cc1)NC(=O)[C@H](CC(=O)O)NC(=O)[C@H](CO)NC(=O)[C@@H](NC(=O)[C@](C)(Cc1ccccc1)NC(=O)[C@@H](NC(=O)CNC(=O)[C@H](CCC(=O)O)NC(=O)C(C)(C)NC(=O)[C@@H](N)Cc1ccc(O)cc1)[C@@H](C)O)[C@@H](C)O)[C@@H](C)CC)[C@@H](C)CC)C(=O)N[C@@H](CCC(=O)O)C(=O)NCC(=O)NCC(=O)N1CCC[C@H]1C(=O)N[C@@H](CO)C(=O)N[C@@H](CO)C(=O)NCC(N)=O` [Example 301] (H-Y[Aib]EGT[αMeF]TSDYSILLDKK([AEEA-AEEA-γGlu-C18 diacid])AQ[Aib]AFIEYLIEGGPSSG-NH2), the EC50 in data set [1] (setting [3]) worked out at 0.0441 nM. The Ki at human GIP receptor (setting [4]) turned out to be 0.0273 nM; on human GLP-1R (setting [5]), 0.875 nM.

Regarding `CC[C@H](C)[C@H](NC(=O)[C@H](CC(C)C)NC(=O)[C@H](Cc1ccc(O)cc1)NC(=O)[C@H](CCC(=O)O)NC(=O)[C@@H](NC(=O)[C@H](Cc1ccccc1)NC(=O)[C@H](C)NC(=O)C(C)(C)NC(=O)[C@H](CCC(N)=O)NC(=O)[C@H](C)NC(=O)[C@H](CCCCNC(=O)COCCOCCNC(=O)COCCOCCNC(=O)CC[C@H](NC(=O)CCCCCCCCCCCCCCCCC(=O)O)C(=O)O)NC(=O)[C@H](CCC(=O)O)NC(=O)[C@H](CC(=O)O)NC(=O)[C@H](CC(C)C)NC(=O)[C@](C)(CC(C)C)NC(=O)[C@@H](NC(=O)[C@H](CO)NC(=O)[C@H](Cc1ccc(O)cc1)NC(=O)[C@H](CC(=O)O)NC(=O)[C@H](CO)NC(=O)[C@@H](NC(=O)[C@H](Cc1ccccc1)NC(=O)[C@@H](NC(=O)CNC(=O)[C@H](CCC(=O)O)NC(=O)C(C)(C)NC(=O)[C@@H](N)Cc1ccc(O)cc1)[C@@H](C)O)[C@@H](C)O)[C@@H](C)CC)[C@@H](C)CC)C(=O)N[C@@H](CCC(=O)O)C(=O)NCC(=O)NCC(=O)N1CCC[C@H]1C(=O)N[C@@H](CO)C(=O)N[C@@H](CO)C(=O)NCC(N)=O` [Example 303] (H-Y[Aib]EGTFTSDYSI[αMeL]LDEK([AEEA-AEEA-γGlu-C18 diacid])AQ[Aib]AFIEYLIEGGPSSG-NH2), in data set [1] (setting [3]), the EC50 amounted to 0.104 nM. Further, the Ki on human GIP receptor (setting [4]) is 0.058 nM; on human GLP-1R (setting [5]) it was 3.69 nM.

In the case of `CC[C@H](C)[C@H](NC(=O)[C@H](CC(C)C)NC(=O)[C@H](Cc1ccc(O)cc1)NC(=O)[C@H](CCC(=O)O)NC(=O)[C@@H](NC(=O)[C@H](Cc1ccccc1)NC(=O)[C@H](C)NC(=O)C(C)(C)NC(=O)[C@H](CCC(N)=O)NC(=O)[C@H](C)NC(=O)[C@H](CCCCNC(=O)COCCOCCNC(=O)COCCOCCNC(=O)CC[C@H](NC(=O)CCCCCCCCCCCCCCCCC(=O)O)C(=O)O)NC(=O)[C@H](CCCCN)NC(=O)[C@H](CC(=O)O)NC(=O)[C@H](CC(C)C)NC(=O)[C@H](CC(C)C)NC(=O)[C@@H](NC(=O)[C@H](CO)NC(=O)[C@H](Cc1ccc(O)cc1)NC(=O)[C@H](CC(=O)O)NC(=O)[C@H](CO)NC(=O)[C@@H](NC(=O)[C@H](Cc1ccccc1)NC(=O)[C@@H](NC(=O)CNC(=O)[C@H](CCC(=O)O)NC(=O)C(C)(C)NC(=O)[C@@H](N)Cc1ccc(O)cc1)[C@@H](C)O)[C@@H](C)O)[C@@H](C)CC)[C@@H](C)CC)C(=O)N[C@@H](C)C(=O)NCC(=O)NCC(=O)N1CCC[C@H]1C(=O)N[C@@H](CO)C(=O)N[C@@H](CO)C(=O)NCC(=O)N[C@@H](C)C(=O)N1CCC[C@H]1C(=O)N1CCC[C@H]1C(=O)N1CCC[C@H]1C(=O)N[C@@H](CO)C(N)=O` [Example 316] (H-Y[Aib]EGTFTSDYSILLDKK([AEEA-AEEA-γGlu-C18 diacid])AQ[Aib]AFIEYLIAGGPSSGAPPPS-NH2), the EC50 in data set [1] (setting [3]) came out at 0.122 nM. For the same compound, the Ki stood at 0.0418 nM at human GIP receptor (setting [4]) and 0.957 nM on human GLP-1R (setting [5]).
